Data as given in ChEMBL document CHEMBL4706629, “New derivatives of 4'-phenyl-2,2':6',2″-terpyridine as promising anticancer agents” (Eur J Med Chem, 2021).
The source made the active and inactive calls. The calls are words filed in the database; no cut-off is given here.

Tests used:
MCF7 [1] = test: Cytotoxicity against human MCF7 cells assessed as reduction in cell viability measured after 72 hrs by MTS assay; type: functional, cell-based; settings: MCF7, 72 h
HCT-116 = test: Cytotoxicity against human HCT-116 cells assessed as reduction in cell viability measured after 72 hrs by MTS assay; type: functional, cell-based; settings: HCT-116, 72 h
U-251 = test: Cytotoxicity against human U-251 cells assessed as reduction in cell viability measured after 72 hrs by MTS assay; type: functional, cell-based; settings: U-251, 72 h
K562 = test: Cytotoxicity against human K562 cells assessed as reduction in cell viability measured after 72 hrs by MTS assay; type: functional, cell-based; settings: K562, 72 h
PANC-1 [2] = test: Cell cycle arrest in human PANC-1 cells assessed as increase in accumulation at G0/G1-phase measured after 24 hrs by muse cell analyser; type: functional, cell-based
PANC-1 [3] = test: Cell cycle arrest in human PANC-1 cells assessed as accumulation at G0/G1-phase at 2.5 uM measured after 24 hrs by muse cell analyser (reference value: 48.28 to 48.7%); type: functional
PANC-1 [4] = test: Cell cycle arrest in human PANC-1 cells assessed as accumulation at S-phase at 2.5 uM measured after 24 hrs by muse cell analyser (reference value: 14.3 to 14.9%); type: functional
PANC-1 [5] = test: Cell cycle arrest in human PANC-1 cells assessed as accumulation at G2/M-phase at 2.5 uM measured after 24 hrs by muse cell analyser (reference value: 36.3 to 36.88%); type: functional
PANC-1 [6] = test: Cell cycle arrest in human PANC-1 cells assessed as accumulation at G0/G1-phase at 7.5 uM measured after 24 hrs by muse cell analyser (reference value: 48.28 to 48.7%); type: functional
PANC-1 [7] = test: Cell cycle arrest in human PANC-1 cells assessed as accumulation at S-phase at 7.5 uM measured after 24 hrs by muse cell analyser (reference value: 14.3 to 14.9%); type: functional
PANC-1 [8] = test: Cell cycle arrest in human PANC-1 cells assessed as accumulation at G2/M-phase at 7.5 uM measured after 24 hrs by muse cell analyser (reference value: 36.3 to 36.88%); type: functional
MCF7 [9] = test: Cell cycle arrest in human MCF7 cells assessed as accumulation at S-phase at 5 uM measured after 24 hrs by muse cell analyser (reference value: 9.9 to 11.66%); type: functional
MCF7 [10] = test: Cell cycle arrest in human MCF7 cells assessed as accumulation at G2/M-phase at 5 uM measured after 24 hrs by muse cell analyser (reference value: 30.92 to 33.6%); type: functional
MCF7 [11] = test: Cell cycle arrest in human MCF7 cells assessed as accumulation at G0/G1-phase at 7.5 uM measured after 24 hrs by muse cell analyser (reference value: 52.65 to 53.3%); type: functional
MCF7 [12] = test: Cell cycle arrest in human MCF7 cells assessed as accumulation at S-phase at 7.5 uM measured after 24 hrs by muse cell analyser (reference value: 9.9 to 11.66%); type: functional
PANC-1 [13] = test: Induction of apoptosis in human PANC-1 cells measured after 48 hrs by Annexin V and dead cell kit analysis; type: functional, cell-based; settings: dose 5-7.5 µM
MCF7 [14] = test: Induction of apoptosis in human MCF7 cells measured after 48 hrs by Annexin V and dead cell kit analysis; type: functional, cell-based; settings: dose 5-7.5 µM
PANC-1 [15] = test: Induction of apoptosis in human PANC-1 cells assessed as viable cells at 5 uM measured after 48 hrs by Annexin V and dead cell kit analysis (reference value: 85.6%); type: functional; settings: read-out: Activity
PANC-1 [16] = test: Induction of apoptosis in human PANC-1 cells assessed as early apoptotic cells at 5 uM measured after 48 hrs by Annexin V and dead cell kit analysis (reference value: 10.95%); type: functional
PANC-1 [17] = test: Induction of apoptosis in human PANC-1 cells assessed as late apoptotic cells at 5 uM measured after 48 hrs by Annexin V and dead cell kit analysis (reference value: 2.4%); type: functional
PANC-1 [18] = test: Induction of apoptosis in human PANC-1 cells assessed as viable cells at 7.5 uM measured after 48 hrs by Annexin V and dead cell kit analysis (reference value: 85.6%); type: functional; settings: read-out: Activity
PANC-1 [19] = test: Induction of apoptosis in human PANC-1 cells assessed as early apoptotic cells at 7.5 uM measured after 48 hrs by Annexin V and dead cell kit analysis (reference value: 10.95%); type: functional
PANC-1 [20] = test: Induction of apoptosis in human PANC-1 cells assessed as late apoptotic cells at 7.5 uM measured after 48 hrs by Annexin V and dead cell kit analysis (reference value: 2.4%); type: functional
MCF7 [21] = test: Induction of apoptosis in human MCF7 cells assessed as early apoptotic cells at 5 uM measured after 48 hrs by Annexin V and dead cell kit analysis (reference value: 0.65%); type: functional
MCF7 [22] = test: Induction of apoptosis in human MCF7 cells assessed as necrotic cells at 5 uM measured after 48 hrs by Annexin V and dead cell kit analysis (reference value: 0.5%); type: functional
MCF7 [23] = test: Induction of apoptosis in human MCF7 cells assessed as early apoptotic cells at 7.5 uM measured after 48 hrs by Annexin V and dead cell kit analysis (reference value: 0.65%); type: functional
MCF7 [24] = test: Induction of apoptosis in human MCF7 cells assessed as necrotic cells at 7.5 uM measured after 48 hrs by Annexin V and dead cell kit analysis (reference value: 0.5%); type: functional
MCF7 [25] = test: Induction of reactive oxygen species generation in human MCF7 cells at 1 uM measured after 24 hrs by cellrox-green reagent based assay relative to control; type: functional
PANC-1 [26] = test: Induction of reactive oxygen species generation in human PANC-1 cells at 1 uM measured after 12 hrs by cellrox-green reagent based assay; type: functional, cell-based
PANC-1 [27] = test: Up regulation of p21 expression in human PANC-1 cells at 0.5 uM measured after 24 hrs by Western blot analysis; type: functional, cell-based
PANC-1 [28] = test: Down regulation of p21 expression in human PANC-1 cells at 5 uM measured after 24 hrs by Western blot analysis; type: functional, cell-based
MCF7 [29] = test: Down regulation of p21 expression in human MCF7 cells at 5 uM measured after 24 hrs by Western blot analysis; type: functional, cell-based
PANC-1 [30] = test: Down regulation of cyclin E1 expression in human PANC-1 cells at 0.5 to 5 uM measured after 24 hrs by Western blot analysis; type: functional, cell-based; settings: dose 0.5-5 µM
PANC-1 [31] = test: Effect on cdc2 expression in human PANC-1 cells at 0.5 to 5 uM measured after 24 hrs by Western blot analysis; type: functional, cell-based; settings: dose 0.5-5 µM
MCF7 [32] = test: Up regulation of p53 expression in human MCF7 cells at 1 to 5 uM measured after 24 hrs by Western blot analysis; type: functional, cell-based; settings: dose 1-5 µM
PANC-1 [33] = test: Induction of apoptosis in human PANC-1 cells assessed as increase in PARP cleavage at 0.5 to 5 uM measured after 24 hrs by Western blot analysis; type: functional, cell-based; settings: dose 0.5-5 µM
PANC-1 [34] = test: Induction of autophagy in human PANC-1 cells assessed as increase in LC3 expression at 1 uM measured after 24 hrs by muse cell analyzer based fluorescence assay relative to control; type: functional
DNA [35] = test: Induction of Escherichia coli supercoiled pUC19 plasmid DNA cleavage assessed as increase in open circular form of a plasmid at 25 uM incubated for 60 mins by agarose gel electrophoresis analysis; type: nucleic-acid assay
DNA [36] = test: Induction of Escherichia coli supercoiled pUC19 plasmid DNA cleavage assessed as decrease in supercoiled form of plasmid at 25 uM incubated for 60 mins by agarose gel electrophoresis analysis; type: nucleic-acid assay

Molecule c1ccc(-c2cn(-c3ccc(-c4cc(-c5ccccn5)nc(-c5ccccn5)c4)cc3)nn2)nc1 has an IC50 (MCF7 [1]) of 407 nM, an IC50 (HCT-116) of 243 nM and an IC50 (U-251) of 855 nM. For the same molecule, the IC50 (K562) was 916 nM, the Activity (PANC-1 [2]) was “Dose-dependent effect” and the Activity (PANC-1 [3]) was 53.98%. For the same molecule, the Activity (PANC-1 [4]) was 11.2%, the Activity (PANC-1 [5]) was 30.2% and the Activity (PANC-1 [6]) was 58.75%. It also gave an Activity (PANC-1 [7]) of 6.9%, an Activity (PANC-1 [8]) of 31% and an Activity (MCF7 [9]) of 12.1%. For the same molecule, the Activity (MCF7 [10]) was 22.4%, the Activity (MCF7 [11]) was 60.4% and the Activity (MCF7 [12]) was 10%. For the same molecule, the Activity (PANC-1 [13]) was “Dose-dependent effect”, the Activity (MCF7 [14]) was “Dose-dependent effect” and the viability at 5 µM (PANC-1 [15]) was 48.8%. For the same molecule, the Activity (PANC-1 [16]) was 41.4%, the Activity (PANC-1 [17]) was 8.75% and the viability at 7.5 µM (PANC-1 [18]) was 39%. For the same molecule, the Activity (PANC-1 [19]) was 54.6%, the Activity (PANC-1 [20]) was 4.55% and the Activity (MCF7 [21]) was 10.6%. For the same molecule, the Activity (MCF7 [22]) was 10.9%, the Activity (MCF7 [23]) was 28.2% and the Activity (MCF7 [24]) was 4.15%. The Activity (MCF7 [25]) was greater than 150%, the Activity (PANC-1 [26]) was “Active” and the Activity (PANC-1 [27]) was “Active”. For the same molecule, the Activity (PANC-1 [28]) was “Active”, the Activity (MCF7 [29]) was “Active” and the Activity (PANC-1 [30]) was “inactive”. The Activity (PANC-1 [31]) was “inactive”, the Activity (MCF7 [32]) was “inactive” and the Activity (PANC-1 [33]) was “Active”. For the same molecule, the “fold change (FC)” value (PANC-1 [34]) was 2.2, the Activity (DNA [35]) was “Active” and the Activity (DNA [36]) was “Active”.
